This passage reports IC50 and Ki results from patent publication US8759342B2, “Benzo[1,4]oxazin-3-one, benzo[1,4]thiazin-3-one and quinolin-2-one urotensin II receptor antagonists” (Janssen Pharmaceutica NV, priority 2006, dated 2014).

The target in test [1] is T1, rat GPR14 (U-II receptor) (Rattus norvegicus, UniProt P49684).
T1 construct: expressed in transfected cells
T1 sequence (P49684 1-386): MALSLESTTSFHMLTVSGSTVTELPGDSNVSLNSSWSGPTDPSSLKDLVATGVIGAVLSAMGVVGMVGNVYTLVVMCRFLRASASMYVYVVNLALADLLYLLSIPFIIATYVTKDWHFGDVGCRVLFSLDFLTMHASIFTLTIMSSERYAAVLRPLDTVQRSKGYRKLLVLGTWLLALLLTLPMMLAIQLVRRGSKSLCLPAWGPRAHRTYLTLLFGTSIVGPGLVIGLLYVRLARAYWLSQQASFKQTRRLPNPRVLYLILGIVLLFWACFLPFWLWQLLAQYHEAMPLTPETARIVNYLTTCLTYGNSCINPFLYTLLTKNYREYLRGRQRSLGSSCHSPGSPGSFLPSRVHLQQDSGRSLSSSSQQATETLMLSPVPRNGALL
The experiment in a line: Calcium flux assay (FLIPR). The format is cell-based. The settings on record: Inhibition of acetyl-cyclic[Cys-Phe-Trp-Lys-(2-Nal)-Cys]-NH2 (1 nM) induced Ca2+ mobilization (FLIPR) in CHO cells transfected with rat UII receptor; 5 min incubation. Put shortly: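 Stable CHO cell line expressing cloned rat U-II receptor, seeded 24 h before assay, loaded with FLIPR calcium dye in HBSS/20 mM HEPES/0.1% BSA/2.5 mM probenecid, pH 7.4, for 1 hr at 37° C. Calcium mobilization read at room temperature (23° C.).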

Test [2] has as its target T2, Human UII receptors (Homo sapiens, UniProt Q9UKP6).
T2 construct: host or cells: Human Skeletal Muscle Myoblasts (HSMM), intact adherent cells
T2 sequence (Q9UKP6 1-389): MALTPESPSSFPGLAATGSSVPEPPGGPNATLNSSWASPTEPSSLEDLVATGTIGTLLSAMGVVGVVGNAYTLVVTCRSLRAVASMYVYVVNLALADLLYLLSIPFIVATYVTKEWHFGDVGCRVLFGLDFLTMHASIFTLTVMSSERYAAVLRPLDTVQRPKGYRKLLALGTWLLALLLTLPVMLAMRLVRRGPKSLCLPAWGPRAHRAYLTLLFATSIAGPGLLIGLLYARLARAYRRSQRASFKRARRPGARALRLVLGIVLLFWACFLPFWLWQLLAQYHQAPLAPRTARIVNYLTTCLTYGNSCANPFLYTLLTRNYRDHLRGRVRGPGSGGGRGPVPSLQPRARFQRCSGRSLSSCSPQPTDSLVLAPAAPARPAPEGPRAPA
The test is described as follows: Human radioligand binding assay, (125I)-U-II on HSMM. The conditions noted are these: 0.150 nM (125I)-U-II, intact Human Skeletal Muscle Myoblasts, 3 hrs, 25° C.; read-out: Ki. The method, then:
Human Skeletal Muscle Myoblasts (HSMM) were obtained from Cambrex, and were cultured according to manufacturer's instruction. Cell viability was examined by trypan blue exclusion. Cells at less than 4 passages were used in all studies. […] The binding medium used was Dulbecco's modified Eagle's medium (DMEM) containing 2 mg/ml BSA and 25 mM HEPES (pH 7.4). […] The cells were washed 4× with the binding medium and solubilized in 1% SDS and 0.5 N NaOH. Radioactivity was quantified by gamma counting.

`O=C(NCCCCCNC(=O)c1cc(Cl)ccc1C1CCN(CCN2C(=O)COc3ccccc32)CC1)OCc1ccccc1` [Cpd 75, [5-(5-chloro-2-{1-[2-(3-oxo-2,3-dihydro-benzo[1,4]oxazin-4-yl)-ethyl]-piperidin-4-yl}-benzoylamino)-pentyl]-carbamic acid benzyl ester]: the IC50 in test [1] stood at 40 nM. In test [2], the Ki turned out to be 34 nM.

Take `CC(C)(C)OC(=O)NCCCCNC(=O)c1cc(Cl)ccc1C1CCN(CCN2C(=O)COc3ccccc32)CC1` [Cpd 60, [4-(5-chloro-2-{1-[2-(3-oxo-2,3-dihydro-benzo[1,4]oxazin-4-yl)-ethyl]-piperidin-4-yl}-benzoylamino)-butyl]-carbamic acid tert-butyl ester]: in test [1], the IC50 was determined as 500 nM. The Ki in test [2] amounted to 150 nM.

On to `O=C(NCCCCCNC(=O)c1cc(Cl)ccc1C1CCN(CCN2C(=O)COc3ccccc32)CC1)NCc1ccccc1` [Cpd 77, N-[5-(3-benzyl-ureido)-pentyl]-5-chloro-2-{1-[2-(3-oxo-2,3-dihydro-benzo[1,4]oxazin-4-yl)-ethyl]-piperidin-4-yl}-benzamide], for which the IC50 in test [1] was 27 nM. In addition, the Ki in test [2] is 37 nM.

In the case of `O=C(NCCc1ccccc1)c1ccccc1C1CCN(CCN2C(=O)COc3ccccc32)CC1` [Cpd 1, 2-{1-[2-(3-oxo-2,3-dihydro-benzo[1,4]oxazin-4-yl)-ethyl]-piperidin-4-yl}-N-phenethyl-benzamide], the IC50 in test [1] stood at 7500 nM. In addition, the Ki in test [2] is 2900 nM.

Consider `CC(CN1C(=O)COc2ccccc21)N1CCC(c2ccc(Cl)cc2C(=O)NCC2CCN(S(=O)(=O)Cc3ccccc3)CC2)CC1` (centres unmarked) [Cpd 84, 5-chloro-2-{1-[1-methyl-2-(3-oxo-2,3-dihydro-benzo[1,4]oxazin-4-yl)-ethyl]-piperidin-4-yl}-N-(1-phenylmethanesulfonyl-piperidin-4-ylmethyl)-benzamide], for which the IC50 in test [1] came out at 2000 nM. In test [2], the Ki came out at 210 nM.

Take `CC(C)(C)OC(=O)NCCCCNC(=O)c1ccccc1C1CCN(CCN2C(=O)COc3ccccc32)CC1` [Cpd 35, [4-(2-{1-[2-(3-oxo-2,3-dihydro-benzo[1,4]oxazin-4-yl)-ethyl]-piperidin-4-yl}-benzoylamino)-butyl]-carbamic acid tert-butyl ester]: the IC50 in test [1] came out at 3000 nM. The Ki in test [2] worked out at 590 nM.

`O=C(NCC1CCN(S(=O)(=O)Cc2ccccc2)CC1)c1cc(Cl)ccc1C1CCN(CCN2C(=O)COc3ccccc32)CC1` [Cpd 72, 5-chloro-2-{1-[2-(3-oxo-2,3-dihydro-benzo[1,4]oxazin-4-yl)-ethyl]-piperidin-4-yl}-N-(1-phenylmethanesulfonyl-piperidin-4-ylmethyl)-benzamide]: the IC50 in test [1] was 53 nM. In addition, the Ki in test [2] was 30 nM.

Turning to `O=C(NCC1CCN(C(=O)OCc2ccccc2)CC1)c1cc(Cl)ccc1C1CCN(CCN2C(=O)COc3ccccc32)CC1` [Cpd 63, 4-[(5-chloro-2-{1-[2-(3-oxo-2,3-dihydro-benzo[1,4]oxazin-4-yl)-ethyl]-piperidin-4-yl}-benzoylamino)-methyl]-piperidine-1-carboxylic acid benzyl ester], the IC50 in test [1] turned out to be 400 nM. For the same molecule, the Ki in test [2] is 54 nM.

Turning to `O=C(NCCc1c[nH]c2ccccc12)c1ccccc1C1CCN(CCN2C(=O)COc3ccccc32)CC1` [Cpd 26, N-[2-(1H-indol-3-yl)-ethyl]-2-{1-[2-(3-oxo-2,3-dihydro-benzo[1,4]oxazin-4-yl)-ethyl]-piperidin-4-yl}-benzamide], in test [1], the IC50 came to 2000 nM. Also, the Ki in test [2] amounted to 750 nM.

With `CC(C)(C)OC(=O)NCCCCCNC(=O)c1ccccc1[C@@H]1C[C@H]2CC[C@@H](C1)N2CCN1C(=O)COc2ccccc21` [Cpd 98, [5-(2-{8-[2-(3-oxo-2,3-dihydro-benzo[1,4]oxazin-4-yl)-ethyl]-8-aza-bicyclo[3.2.1]oct-3-yl}-benzoylamino)-pentyl]-carbamic acid tert-butyl ester], the IC50 in test [1] was 1600 nM. For the same molecule, the Ki in test [2] stood at 1400 nM.

In general, IC50 refers to the concentration at which inhibition is half-maximal. The term Ki denotes the dissociation constant of the complex between target and ligand, obtained from inhibition or displacement.
